Results on 73 compounds are retold here after PubChem BioAssay AID1996.

Converted amounts (≈) assume the structure as drawn. Where only a bound is given, the exact number is not on record here.

The conditions of the data set: buffer; pH 7.4; 200.0 µM.
Usually solubility (kinetic) stands for the concentration staying in solution when a stock, usually in DMSO, is diluted into the medium. `O=C(Cc1ccc(Cl)cc1)NCCc1ccc(F)cc1` registered a solubility (kinetic) of 19.4 µg/mL (≈ 66.5 µM).
As for `CC(C)(C)c1ccc(SCCc2ccccn2)cc1`, the figure is 1.1 µg/mL (≈ 4.05 µM).
For the compound `CC(C)(C)c1cc(CCC(=O)NCc2cccnc2)cc(C(C)(C)C)c1O`, the kinetic solubility was determined as 36.5 µg/mL (≈ 99 µM).
As for `Nc1nc(NCc2ccco2)nc(NCCO)c1[N+](=O)[O-]`, the figure is above 44.1 µg/mL.
`O=C(Nc1ccc(NC(=O)C2CC2)nc1)c1ccccc1F` showed a solubility (kinetic) of 8.1 µg/mL (≈ 27.1 µM).
The same measure for `CN(C(=O)c1cncc(Br)c1)C1C2CC3CC(C2)CC1C3` (stereo not drawn): 48.1 µg/mL (≈ 138 µM).
As for `Cc1ccc(F)cc1NC(=O)c1ccc(OCC2CCCO2)cc1` (stereo not drawn), the figure is above 49.4 µg/mL; as for `CCC(C)NC(=O)CN1C(=O)NC2NC(=O)NC21` (stereo not drawn), above 38.3 µg/mL.
The same measure for `CCNc1nc(-c2ccc(OC(F)F)cc2)c(C)s1`: 20.9 µg/mL (≈ 73.5 µM).
In turn, `O=C(Nc1nc(-c2ccccc2)cs1)c1ccccc1F` returned a kinetic solubility of 0.4 µg/mL (≈ 1.34 µM).
The same measure for `O=C(O)/C=C\C(=O)Nc1cc(O)ccc1[N+](=O)[O-]`: above 37.8 µg/mL; for `CC1CC(C)CN(C(=O)COC(=O)COc2ccccc2C#N)C1` (stereo not drawn): above 49.6 µg/mL.
As for `O=C(O)CNc1ccccc1C(=O)O`, the solubility (kinetic) is above 29.3 µg/mL.
In turn, `Cc1ccccc1NC(=O)C1COc2ccccc2O1` (stereo not drawn) returned a solubility (kinetic) of 32.6 µg/mL (≈ 121 µM).
The same measure for `CCN(CC)C(=O)c1ccc(-c2nnc(OC)c3ccccc23)cc1`: above 50.3 µg/mL.
As for `CCCCN(Cc1cc2cc(C)ccc2[nH]c1=O)C(=O)c1ccccn1`, the figure is above 52.4 µg/mL; as for `O=C(Cn1cc([N+](=O)[O-])ccc1=O)NCc1ccc(Cl)cc1Cl`, 1.9 µg/mL (≈ 5.33 µM); as for `COC(=O)C(NC(=O)C(C)NC(=O)OCc1ccccc1)C(C)C` (stereo not drawn), above 50.5 µg/mL.
The same measure for `Cc1cc(C)c(C)c(S(=O)(=O)N[C@@H](C)C(=O)OCC(=O)NC2CCCC(C)C2C)c1C` (stereo partly drawn): 27.8 µg/mL (≈ 61.4 µM); for `CCOc1ccc(NC(=S)c2ccc3ccccc3n2)cc1`: below 0.3 µg/mL.
As for `O=C(NCc1nc(-c2ccc(Cl)cc2)no1)c1ccco1`, the solubility (kinetic) was 9.4 µg/mL (≈ 31 µM).
As for `CC(=O)Nc1ccc(S(=O)(=O)N2CC(=O)NC(=O)C2)cc1`, the figure is above 46.7 µg/mL.
Compound `CCN(C(=O)CSc1nccc(=O)[nH]1)C1CCCCC1` yielded a kinetic solubility above 44.3 µg/mL.
As for `CCC1CCCCN1C(=O)c1ccc([N+](=O)[O-])o1` (stereo not drawn), the figure is above 37.8 µg/mL; as for `O=C(COC(=O)CCSc1ccc(F)cc1)NCc1ccc(F)cc1`, 26.5 µg/mL (≈ 72.5 µM).
`Cc1cccc(NC(=O)CCC(=O)c2cccs2)n1` displayed a solubility (kinetic) above 41.2 µg/mL.
As for `COc1ccccc1-c1c(C)nn2c(N3CCOCC3)cc(C)nc12`, the figure is above 50.8 µg/mL; as for `O=c1cc(-c2ccccc2)c2cc(Cl)ccc2[nH]1`, below 0.5 µg/mL; as for `CCOC(=O)Cc1csc(NC(=O)Cc2ccc(Cl)cc2)n1`, 5.5 µg/mL (≈ 16.2 µM).
`O=C(NCc1cccnc1)Nc1ccc(Br)cc1`: the solubility (kinetic) was above 45.9 µg/mL.
The same measure for `O=C(c1csc(Nc2cccc3ccccc23)n1)N1CCCC1`: 13.1 µg/mL (≈ 40.5 µM).
As for `O=c1nc(-c2ccccc2)nc(-c2ccccc2)[nH]1`, the figure is 22.9 µg/mL (≈ 91.9 µM); as for `O=C1NCCCCC1NS(=O)(=O)c1ccc(F)c(F)c1` (stereo not drawn), 43.1 µg/mL (≈ 142 µM); as for `Cn1cnc(S(=O)(=O)Nc2ccccc2C(=O)NCC2CC2)c1`, above 50.2 µg/mL.
`COc1ccccc1N1CCN(CCc2ccccc2)CC1` registered a solubility (kinetic) of 37.5 µg/mL (≈ 127 µM).
The same measure for `CN(C(=O)CSc1nc2ccccc2c(=O)n1-c1ccccc1Cl)C1CCS(=O)(=O)C1` (stereo not drawn): 71.1 µg/mL (≈ 149 µM); for `CC(C)c1ccc(NC(=S)Nc2ccc3[nH]c(=O)[nH]c3c2)cc1`: 16.7 µg/mL (≈ 51.2 µM).
The same measure for `O=C(CCl)Nc1sccc1C(=O)c1ccccc1`: 3.6 µg/mL (≈ 12.9 µM); for `CC1CCN(CC(O)Cn2c3ccccc3c3ccccc32)CC1` (stereo not drawn): 38.7 µg/mL (≈ 120 µM).
In turn, `O=C(O)CCCCCCCCCC[n+]1ccccc1.[Br-]` gave a kinetic solubility of 47.9 µg/mL.
As to `O=S(=O)(NCCCCNS(=O)(=O)c1ccc(F)cc1)c1ccc(F)cc1`, the kinetic solubility was found to be 0.7 µg/mL (≈ 1.73 µM).
Take `COc1cc(C(=O)c2ccccc2)c([N+](=O)[O-])cc1OC`: the kinetic solubility was above 43.1 µg/mL.
As for `COc1cccc(C(=S)N2CCOCC2)c1OS(=O)(=O)c1ccc(Cl)cc1`, the figure is 3.3 µg/mL (≈ 7.71 µM).
In the case of `NS(=O)(=O)c1ccc(Nc2nc(-c3cccnc3)cs2)cc1`, the solubility (kinetic) was below 0.2 µg/mL.
As for `CC(C)c1ccc(C(CC(=O)O)N2Cc3ccccc3C2=O)cc1` (stereo not drawn), the figure is above 48.5 µg/mL; as for `c1ccc(-c2cn(-c3ccccc3)c3ncnc(N4CCCCC4)c23)cc1`, below 0.2 µg/mL; as for `CSc1ncccc1C(=O)Nc1ccc(OC(F)(F)F)cc1`, 3.8 µg/mL (≈ 11.6 µM).
Regarding `O=C(c1ccc(F)cc1)C1CCN(Cc2ccc(F)cc2)CC1`, the solubility (kinetic) is 36.2 µg/mL (≈ 115 µM).
Regarding `Cc1cc(C2(O)C(=O)Nc3ccccc32)ccc1F` (stereo not drawn), the solubility (kinetic) was above 38.6 µg/mL.
`Cc1cc(C(=O)Nc2ccccc2C(=O)O)c(C)o1`: the solubility (kinetic) is above 38.9 µg/mL.
In turn, `c1ccc(-n2cc(CN3CCCC3)c(-c3ccc4c(c3)OCO4)n2)cc1` registered a solubility (kinetic) above 52.1 µg/mL.
The same measure for `CC(=O)Nc1c2c(nn1-c1ccccc1C)CS(=O)C2` (stereo not drawn): above 43.4 µg/mL.
In the case of `CC(C)Cn1c(N)c(C(=O)COC(=O)c2cc(S(=O)(=O)N3CCOCC3)ccc2Br)c(=O)n(C)c1=O`, the solubility (kinetic) came out at 7.9 µg/mL (≈ 13.4 µM).
As for `CCNS(=O)(=O)c1ccc(CCC(=O)N2CCC(C)CC2)cc1`, the figure is 49 µg/mL (≈ 145 µM).
The same measure for `O=C(NCC(=O)N1CCN(Cc2ccccc2)CC1)c1cc(Cl)cc([N+](=O)[O-])c1`: above 62.5 µg/mL.
Compound `Cn1ncc([N+](=O)[O-])c1C(=O)N1CCCCCC1` registered a solubility (kinetic) above 37.8 µg/mL.
The same measure for `O=C(Nc1ccc2oc(-c3ccncc3)nc2c1)c1ccco1`: 12.7 µg/mL (≈ 41.6 µM).
Take `O=C(COC(=O)CCC1CCCC1)Nc1ccc(F)cc1Cl`: the kinetic solubility came to 3.4 µg/mL (≈ 10.4 µM).
The compound `COc1cc2sc(C)nc2cc1C` came in with a solubility (kinetic) of 4.8 µg/mL (≈ 24.8 µM).
`Cc1ccc(C(OC(=O)c2ccco2)C(=O)NC(C)(C)C)cc1` (stereo not drawn): the solubility (kinetic) amounted to 17 µg/mL (≈ 53.9 µM).
On to `O=C1N=C(N2CCOCC2)S/C1=C\c1cccs1`, for which the kinetic solubility was above 42.1 µg/mL.
For the compound `Cc1ccc(NC(=O)COc2ccc3c(c2)OCO3)c(C)c1`, the kinetic solubility is 6.1 µg/mL (≈ 20.4 µM).
With `O=C(CSCc1ccccc1Cl)Nc1ccc(C(=O)O)cc1`, the solubility (kinetic) was above 50.4 µg/mL.
The same measure for `O=C(Nc1cccc2c1C(=O)NC2=O)c1ccccc1[N+](=O)[O-]`: 6.9 µg/mL (≈ 22.2 µM); for `CNC(=O)Oc1ccc2c(c1)[C@]1(C)CCN(C)C1N2C.O=C(O)c1ccccc1O` (stereo partly drawn): above 62 µg/mL.
Compound `Cc1cc(C(=O)N2CCN(c3ccc([N+](=O)[O-])cc3)CC2)n[nH]1` had a solubility (kinetic) above 47.3 µg/mL.
In turn, `O=C(Nc1nnc(Cc2ccc(Cl)cc2)s1)C1CCCO1` (stereo not drawn) showed a solubility (kinetic) above 48.6 µg/mL.
As for `Cc1cccc(C)c1OCC1CNC(=O)O1` (stereo not drawn), the figure is 24.8 µg/mL (≈ 112 µM); as for `COC(=O)Nc1c(-c2ccccc2)nc2ccc(Cl)cn12`, 2.2 µg/mL (≈ 7.29 µM); as for `N#Cc1ccc(OCC(=O)OCC(=O)NC2CC2)cc1`, above 41.1 µg/mL.
For `CCCCCCC(O)(CCN1CCCCC1)c1ccccc1.Cl` (stereo not drawn), the solubility (kinetic) came to 49.3 µg/mL.
In the case of `CC(N)C(=O)OC(C)(C)Cc1ccc(Cl)cc1.Cl` (stereo not drawn), the solubility (kinetic) is above 43.8 µg/mL.
Take `CCN1CCCC1CNC(=O)C(=O)NC(C)c1ccccc1` (stereo not drawn): the solubility (kinetic) is above 45.5 µg/mL.
